Experimental data: patent publication EP2970215B1, “PYRROLIDINE DERIVATIVES, PHARMACEUTICAL COMPOSITIONS CONTAINING THEM, AND THEIR USE IN THERAPY” (AbbVie Deutschland GmbH & Co. KG, priority 2013, dated 2014)

Molecular target: T1, human GlyT1c transporter (Homo sapiens, UniProt P48067)
T1 construct: expressed in transfected cells; host or cells: CHO cells (recombinant; line hGlyT1c_5_CHO is named for the uptake assay)
T1 sequence (P48067 1-706): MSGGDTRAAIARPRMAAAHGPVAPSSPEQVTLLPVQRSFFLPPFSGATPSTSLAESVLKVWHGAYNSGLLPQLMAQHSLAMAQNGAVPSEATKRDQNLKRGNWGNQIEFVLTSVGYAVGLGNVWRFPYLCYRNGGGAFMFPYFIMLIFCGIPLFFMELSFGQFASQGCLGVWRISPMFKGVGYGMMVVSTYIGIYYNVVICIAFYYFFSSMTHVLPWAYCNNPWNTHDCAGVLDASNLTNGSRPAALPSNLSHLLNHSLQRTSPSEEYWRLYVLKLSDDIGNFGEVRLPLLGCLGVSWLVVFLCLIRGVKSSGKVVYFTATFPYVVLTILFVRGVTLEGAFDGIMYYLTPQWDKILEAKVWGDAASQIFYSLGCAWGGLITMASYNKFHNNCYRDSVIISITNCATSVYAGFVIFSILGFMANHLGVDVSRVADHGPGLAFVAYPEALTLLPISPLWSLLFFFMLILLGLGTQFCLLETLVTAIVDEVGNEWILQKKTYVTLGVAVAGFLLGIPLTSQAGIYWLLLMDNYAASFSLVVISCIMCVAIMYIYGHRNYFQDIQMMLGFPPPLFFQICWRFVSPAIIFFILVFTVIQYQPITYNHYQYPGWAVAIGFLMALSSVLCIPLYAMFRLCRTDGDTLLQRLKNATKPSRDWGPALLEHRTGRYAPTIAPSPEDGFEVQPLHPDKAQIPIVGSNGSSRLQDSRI
Assay: Radioligand binding assay using recombinant CHO cell membranes expressing human GlyT1
Settings: radioligand binding to human GlyT1c transporter-expressing membranes
Excerpt: 2. Radioligand binding assays using recombinant CHO cell membranes expressing human GlyT1: […]

Molecule	Ki
COC[C@H](C)NC[C@@H]1CN(S(=O)(=O)c2cn(C)cn2)C[C@H]1c1ccc(F)cc1 (mixture of isomers) [Example 596, (2S)-N-({trans-4-(4-fluorophenyl)-1-[(1-methyl-1H-imidazol-4-yl)sulfonyl]pyrrolidin-3-yl}methyl)-1-methoxypropan-2-amine]	≤ 10 µM
Cn1cnc(S(=O)(=O)N2C[C@@H]([C@@H]3CCCOC3)[C@H](Nc3cccc(OC(F)(F)F)c3)C2)c1 (mixture of isomers) [Example 784, trans-1-[(1-methyl-1H-imidazol-4-yl)sulfonyl]-4-[(3S)-tetrahydro-2H-pyran-3-yl]-N-[3-(trifluoromethoxy)phenyl]pyrrolidin-3-amine]	≤ 0.1 µM
Cn1cnc(S(=O)(=O)N2C[C@@H]([C@@H]3CCCOC3)[C@H](Nc3cccc(Oc4ccccc4)c3)C2)c1 (mixture of isomers) [Example 786, trans-1-[(1-methyl-1H-imidazol-4-yl)sulfonyl]-N-(3-phenoxyphenyl)-4-[(3S)-tetrahydro-2H-pyran-3-yl]pyrrolidin-3-amine]	≤ 1 µM
Cn1cnc(S(=O)(=O)N2C[C@@H]([C@@H]3CCCOC3)[C@H](Nc3cccc(-c4ccccc4)c3)C2)c1 (mixture of isomers) [Example 787, trans-N-(biphenyl-3-yl)-1-[(1-methyl-1H-imidazol-4-yl)sulfonyl]-4-[(3S)-tetrahydro-2H-pyran-3-yl]pyrrolidin-3-amine]	≤ 1 µM
Cn1cnc(S(=O)(=O)N2C[C@@H]([C@@H]3CCCOC3)[C@H](Nc3ccc(F)c(OC(F)(F)F)c3)C2)c1 (mixture of isomers) [Example 788, Trans-N-[4-fluoro-3-(trifluoromethoxy)phenyl]-1-[(1-methyl-1H-imidazol-4-yl)sulfonyl]-4-[(3S)-tetrahydro-2H-pyran-3-yl]pyrrolidin-3-amine]	≤ 1 µM
Cn1cnc(S(=O)(=O)N2C[C@@H]([C@@H]3CCCOC3)[C@H](Nc3ccc(F)c(Cl)c3)C2)c1 (mixture of isomers) [Example 789, Trans-N-(3-chloro-4-fluorophenyl)-1-[(1-methyl-1H-imidazol-4-yl)sulfonyl]-4-[(3S)-tetrahydro-2H-pyran-3-yl]pyrrolidin-3-amine]	≤ 1 µM
Cc1cc(N[C@@H]2CN(S(=O)(=O)c3cn(C)cn3)C[C@H]2[C@@H]2CCCOC2)ccc1F (mixture of isomers) [Example 790, Trans-N-(4-fluoro-3-methylphenyl)-1-[(1-methyl-1H-imidazol-4-yl)sulfonyl]-4-[(3S)-tetrahydro-2H-pyran-3-yl]pyrrolidin-3-amine]	≤ 1 µM
Cn1cnc(S(=O)(=O)N2C[C@@H]([C@@H]3CCCOC3)[C@H](Nc3ccc(F)c(C(F)(F)F)c3)C2)c1 (mixture of isomers) [Example 791, Trans-N-[4-fluoro-3-(trifluoromethyl)phenyl]-1-[(1-methyl-1H-imidazol-4-yl)sulfonyl]-4-[(3S)-tetrahydro-2H-pyran-3-yl]pyrrolidin-3-amine]	≤ 1 µM
Cn1cnc(S(=O)(=O)N2C[C@@H]([C@@H]3CCCOC3)[C@H](Nc3cccc(OCc4ccccc4)c3)C2)c1 (mixture of isomers) [Example 794, Trans-N-[3-(benzyloxy)phenyl]-1-[(1-methyl-1H-imidazol-4-yl)sulfonyl]-4-[(3S)-tetrahydro-2H-pyran-3-yl]pyrrolidin-3-amine]	≤ 1 µM
COc1ccc([C@@H]2CN(S(=O)(=O)c3cn(C)cn3)C[C@H]2NC(=O)c2cccc(C(F)(F)F)c2Cl)cc1 (relative stereo) [Example 2, 2-chloro-N-{trans-4-(4-methoxyphenyl)-1-[(1-methyl-1H-imidazol-4-yl)sulfonyl]pyrrolidin-3-yl}-3-(trifluoromethyl)benzamide]	≤ 1 µM
Cn1cnc(S(=O)(=O)N2C[C@@H](NC(=O)c3cccc(C(F)(F)F)c3Cl)[C@H](c3ccc(F)cc3)C2)c1 (relative stereo) [Example 3, 2-chloro-N-{trans-4-(4-fluorophenyl)-1-[(1-methyl-1H-imidazol-4-yl)sulfonyl]pyrrolidin-3-yl}-3-(trifluoromethyl)benzamide]	≤ 0.1 µM
CS(=O)(=O)N1C[C@@H](NC(=O)c2cccc(C(F)(F)F)c2Cl)[C@H](c2cc(F)c(F)cc2F)C1 (relative stereo) [Example 4, 2-chloro-N-[trans-1-(methylsulfonyl)-4-(2,4,5-trifluorophenyl)pyrrolidin-3-yl]-3-(trifluoromethyl)benzamide]	≥ 10 µM
Cn1cnc(S(=O)(=O)N2C[C@@H](NC(=O)c3cccc(C(F)(F)F)c3Cl)[C@H](c3ccc(Cl)cc3)C2)c1 (relative stereo) [Example 13, 2-chloro-N-{trans-4-(4-chlorophenyl)-1-[(1-methyl-1H-imidazol-4-yl)sulfonyl]pyrrolidin-3-yl}-3-(trifluoromethyl)benzamide]	≤ 1 µM
Cn1cnc(S(=O)(=O)N2C[C@@H](NC(=O)c3ccccc3Cl)[C@H](c3ccccc3)C2)c1 (relative stereo) [Example 14, 2-chloro-N-{trans-1-[(1-methyl-1H-imidazol-4-yl)sulfonyl]-4-phenylpyrrolidin-3-yl}benzamide]	≤ 1 µM
Cn1cnc(S(=O)(=O)N2C[C@@H](NC(=O)c3cccc(Cl)c3)[C@H](c3ccccc3)C2)c1 (relative stereo) [Example 15, 3-chloro-N-{trans-1-[(1-methyl-1H-imidazol-4-yl)sulfonyl]-4-phenylpyrrolidin-3-yl}benzamide]	≤ 10 µM
Cn1cnc(S(=O)(=O)N2C[C@@H](NC(=O)c3ccc(Cl)cc3)[C@H](c3ccccc3)C2)c1 (relative stereo) [Example 16, 4-chloro-N-{trans-1-[(1-methyl-1H-imidazol-4-yl)sulfonyl]-4-phenylpyrrolidin-3-yl}benzamide]	≤ 1 µM
Cn1cnc(S(=O)(=O)N2C[C@@H](NC(=O)c3ccccc3F)[C@H](c3ccccc3)C2)c1 (relative stereo) [Example 17, 2-fluoro-N-{trans-1-[(1-methyl-1H-imidazol-4-yl)sulfonyl]-4-phenylpyrrolidin-3-yl}benzamide]	≤ 10 µM
Cn1cnc(S(=O)(=O)N2C[C@@H](NC(=O)c3cccc(F)c3)[C@H](c3ccccc3)C2)c1 (relative stereo) [Example 18, 3-fluoro-N-{trans-1-[(1-methyl-1H-imidazol-4-yl)sulfonyl]-4-phenylpyrrolidin-3-yl}benzamide]	≤ 10 µM
Cn1cnc(S(=O)(=O)N2C[C@@H](NC(=O)c3ccc(F)cc3)[C@H](c3ccccc3)C2)c1 (relative stereo) [Example 19, 4-fluoro-N-{trans-1-[(1-methyl-1H-imidazol-4-yl)sulfonyl]-4-phenylpyrrolidin-3-yl}benzamide]	≤ 10 µM
COc1ccccc1C(=O)N[C@@H]1CN(S(=O)(=O)c2cn(C)cn2)C[C@H]1c1ccccc1 (relative stereo) [Example 20, 2-methoxy-N-{trans-1-[(1-methyl-1H-imidazol-4-yl)sulfonyl]-4-phenylpyrrolidin-3-yl}benzamide]	≤ 10 µM

Same assay, conditions: radioligand binding, recombinant CHO cell membranes expressing human GlyT1c

Molecule	Ki
2-[(1-methyl-1H-imidazol-4-yl)sulfonyl]-N-[4-(trifluoromethyl)pyridin-2-yl]-2,3,3a,8-tetrahydroindeno[1,2-c]pyrrol-8a(1H)-amine [Example 892]	≤ 0.1 µM
